What was measured:
[1] = Hydrolysis of the compound at pH 7.4 at 37 degC assessed as first-order rate coefficient at 3.4 x 10' -3 M; format: physicochemical; conditions: buffer, pH 7.4, 3400 µM
[2] = Half life of the compound at pH 7.4 at 37 degC at 3.4 x 10' -3 M; format: physicochemical

## O=[N+]([O-])c1cc([N+](=O)[O-])c(NCCCSCCCl)c(S(=O)(=O)O)c1
[1]
  K: 2 ×10⁻³ /s
[2]
  half-life at 3400 µM: 5.83 min
